Assays:
[1] = target: T1, human GR (glucocorticoid receptor) (Homo sapiens, UniProt P04150); format: cell-based; settings: for IC50 (M) ± SEM: 20 nM [3H]-DEX, 3 h
T1 sequence (P04150 1-777): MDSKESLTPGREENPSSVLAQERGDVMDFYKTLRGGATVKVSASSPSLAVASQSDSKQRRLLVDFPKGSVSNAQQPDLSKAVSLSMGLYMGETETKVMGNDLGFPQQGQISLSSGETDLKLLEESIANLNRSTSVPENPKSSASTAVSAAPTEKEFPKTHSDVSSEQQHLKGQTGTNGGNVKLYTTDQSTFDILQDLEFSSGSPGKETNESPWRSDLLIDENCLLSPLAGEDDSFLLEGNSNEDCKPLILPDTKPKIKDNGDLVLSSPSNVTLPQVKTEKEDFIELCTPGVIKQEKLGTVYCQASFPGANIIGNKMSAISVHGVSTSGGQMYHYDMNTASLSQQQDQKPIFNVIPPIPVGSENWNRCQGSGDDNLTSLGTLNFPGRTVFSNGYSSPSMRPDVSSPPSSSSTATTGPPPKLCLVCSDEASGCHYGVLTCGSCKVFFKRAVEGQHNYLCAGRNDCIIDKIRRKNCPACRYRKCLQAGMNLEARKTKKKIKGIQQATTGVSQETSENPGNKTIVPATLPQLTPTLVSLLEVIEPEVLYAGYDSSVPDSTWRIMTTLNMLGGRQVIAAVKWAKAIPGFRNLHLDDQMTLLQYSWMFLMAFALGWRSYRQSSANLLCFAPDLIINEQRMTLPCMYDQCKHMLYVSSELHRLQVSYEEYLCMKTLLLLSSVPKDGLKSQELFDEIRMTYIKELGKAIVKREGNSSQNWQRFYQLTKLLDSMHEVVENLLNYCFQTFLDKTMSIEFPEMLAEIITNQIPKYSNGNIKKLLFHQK

[2] = target: T1, human GR (glucocorticoid receptor); assay: GRE-luciferase reporter transactivation in transfected COS-1 cells; format: cell-based

Compound	IC50 (M) ± SEM [1]	EC50 [2] [nM]	IC50 [1] [nM]
C#C[C@]1(O)CC[C@H]2[C@@H]3CCC4=CC(=O)CC[C@@H]4[C@H]3C(=C)C[C@@]21CC [etonogestrel]	1.15 ± 5.2 × 10^-8 M	31.9	–
C#C[C@]1(O)CC[C@H]2[C@@H]3CCC4=CC(=O)CC[C@@H]4[C@H]3CC[C@@]21CC [levonorgestrel]	1.35 ± 9.1 × 10^-7 M	–	–
CC(=O)O[C@]1(C(C)=O)CC[C@H]2[C@@H]3C[C@H](C)C4=CC(=O)CC[C@]4(C)[C@H]3CC[C@@]21C [medroxyprogesterone acetate]	–	41.7	5.58
C=C1C[C@H]2[C@@H]3CCC4=CC(=O)CC[C@@H]4[C@H]3CC[C@]2(C)[C@@]1(OC(C)=O)C(C)=O [nestorone]	–	18.5	57.3
